Reference: PubChem BioAssay (NCI)
Several values for one entry are separate records, joined by “and”; a condition that tells them apart may be missing. Identical values can stand only once.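 Dose response: 5 concentrations. Exposure: 48 h. Format: 96-well plates. Endpoint: linear interpolation; highest concentration if not reached. The concentration for 50% growth inhibition is given as GI50. The concentration for full growth arrest is given as TGI.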

Tests used:
Assay in all cases: NCI tumour cell line growth inhibition, 48 h
[1] = tested on: MDA-MB-435
[2] = tested on: T-47D breast
[3] = tested on: BT-549 breast
[4] = tested on: HS 578T breast
[5] = tested on: M19-MEL melanoma
[6] = tested on: DMS 114 small cell lung
[7] = tested on: SNB-78 CNS
[8] = tested on: MDA-N
[9] = tested on: RXF-631 renal
[10] = tested on: SN12K1 renal

SMILES	TGI [1]	TGI [2]	TGI [3]	TGI [4] [µM]	TGI [5] [µM]	TGI [6]	TGI [7]	also measured
O=C(Nc1ccc(-c2nc3cc4ccccc4cc3[nH]2)cc1)c1cccc(Br)c1	20.4 µM	18.1 µM	28.5 µM	46.2				GI50 [1]: 4.72 µM; GI50 [2]: 4.09 µM; GI50 [3]: 12.6 µM; GI50 [4]: 14.3 µM
Oc1cccc2c1NC1=C(CCC/C1=C\c1ccccc1)C2					> 100	> 100 µM		
O=S(=O)([O-])[O-].[OH3+].[OH3+].[OH3+].[Ru+2].c1ccccc1					> 100	> 100 µM	> 100 µM	GI50 [5]: > 100 µM; GI50 [7]: > 100 µM; GI50 [6]: > 100 µM
O=[N+]([O-])c1ccc(N2CCN(Cc3ccccc3)CC2)c2c1no[n+]2[O-]	3.38 µM	3.89 µM	3.78 µM	7.99				GI50 [1]: 1.72 µM; GI50 [2]: 1.41 µM; GI50 [3]: 1.93 µM; GI50 [4]: 2.32 µM
CN(C)CCCCN1CCc2c(n(C)c3ccccc23)C1=O	33.9 µM and 35 µM	> 51.5 µM and 59.9 µM	> 61.5 µM and 95.3 µM	> 89.4	69.6	> 100 µM	> 100 µM	TGI [8]: 18.3 µM and 34.2 µM
CC(Cn1c2c3ccccc3ccc2c2oc(=O)c3ccccc3c21)N(C)C (configuration not stated)						> 100 µM	> 100 µM	
CC(=O)N(C)OC(=O)CC(=O)c1ccccc1					> 100	> 100 µM	> 100 µM	TGI [9]: > 100 µM
CN(C)c1ccc(-c2cc(=O)c3ccccc3[nH]2)cc1					> 100	> 100 µM	> 100 µM	
CCN(CC)CCCN(c1cc(OC)cc2nccnc12)S(=O)(=O)c1ccc(C)cc1					> 100	> 100 µM		TGI [9]: > 100 µM
CC(C)(C)[Si](C)(C)OCC1CCC(n2cnc3c(NC(=O)c4ccccc4)ncnc32)O1 (configuration not stated)	29.2 µM	60.6 µM		33				TGI [8]: 30.9 µM
CCCc1c2c([nH]c(=O)c1C)C(=O)c1[nH]c(=O)c(C)c(CCC)c1C2=O					9.52	16.4 µM	> 100 µM	
CN1CCN(Cc2ccc(-c3cc4ncnc(Nc5ccc(OCc6cccc(F)c6)c(Cl)c5)c4s3)o2)CC1	10.4 µM	9.06 µM	8.91 µM	12.7				GI50 [1]: 4.68 µM; GI50 [2]: 4.12 µM; GI50 [3]: 4.41 µM; GI50 [4]: 5.57 µM
Cc1[nH]c(=O)[nH]c(=O)c1N(CCF)CCCl	876 µM	1340 µM	769 µM	1660		371 µM and 771 µM and 436 µM	1000 µM and 1400 µM and 1210 µM	TGI [8]: 828 µM; GI50 [10]: 187 µM; TGI [10]: 513 µM and 703 µM and 657 µM; GI50 [7]: 435 µM; GI50 [6]: 148 µM
COc1nc2c(OC)cccc2c(OC)c1C=O					> 100	> 100 µM		
